Test results reported in the supplement of paper PMC10307832.

Legend:
Assay in all cases: relative viability (nuclei count vs DMSO), 5 days (fraction); higher = more cells survive
RO-3306 + Luminespib = compound: C1=CC2=C(C=CC(=C2)C=C3C(=O)NC(=NCC4=CC=CS4)S3)N=C1 [RO-3306] + CCNC(=O)c1noc(-c2cc(C(C)C)c(O)cc2O)c1-c1ccc(CN2CCOCC2)cc1 [Luminespib] (partner 0.01 µM)
Procedure, shortened: (§1)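 Values are medians from duplicate plates. Each reflects relative viability, defined as the nuclei count of treated wells over that of vehicle wells. Lung cancer cell lines in 1536-well plates were pin-tool dosed one day after seeding with one drug alone or with a fixed anchor-drug dose plus five library-drug doses (not always all listed) in √10 steps, then fixed, stained and imaged at 4× after 5 days.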

RO-3306 + Crizotinib = compound: C1=CC2=C(C=CC(=C2)C=C3C(=O)NC(=NCC4=CC=CS4)S3)N=C1 [RO-3306] + C[C@@H](Oc1cc(-c2cnn(C3CCNCC3)c2)cnc1N)c1c(Cl)ccc(F)c1Cl [Crizotinib] (partner 1 µM)
Procedure, shortened: as §1

[1] = compound: O=S(=O)(c1ccccc1)N(CC(F)(F)F)c1ccc(C(O)(C(F)(F)F)C(F)(F)F)cc1 + CC(C)C[C@H](NC(=O)[C@H](Cc1ccccc1)NC(=O)c1cnccn1)B(O)O [Bortezomib] (partner 0.002 µM)
Procedure, shortened: as §1

[2] = compound: O=S(=O)(c1ccccc1)N(CC(F)(F)F)c1ccc(C(O)(C(F)(F)F)C(F)(F)F)cc1 + C[C@]1(O)C[C@@H](c2nc(-c3ccc4ccc(-c5ccccc5)nc4c3)c3c(N)nccn32)C1 [Linsitinib] (partner 1 µM)
Procedure, shortened: as §1

Cell Line | relative viability (RO-3306 + Luminespib; first compound 0.01 µM) | relative viability (RO-3306 + Luminespib; first compound 0.03162 µM) | relative viability (RO-3306 + Luminespib; first compound 0.1 µM) | relative viability (RO-3306 + Luminespib; first compound 0.3162 µM) | relative viability (RO-3306 + Luminespib; first compound 1 µM) | relative viability (RO-3306 + Crizotinib; first compound 0.01 µM) | relative viability (RO-3306 + Crizotinib; first compound 0.03162 µM) | relative viability (RO-3306 + Crizotinib; first compound 0.1 µM) | relative viability (RO-3306 + Crizotinib; first compound 0.3162 µM) | relative viability (RO-3306 + Crizotinib; first compound 1 µM) | relative viability ([1]; first compound 0.8 µM) | relative viability ([1]; first compound 2.53 µM) | relative viability ([1]; first compound 8 µM) | relative viability ([2]; first compound 0.8 µM) | relative viability ([2]; first compound 2.53 µM) | relative viability ([2]; first compound 8 µM)
NCI-H2085 | 0.377 | 0.499 | 0.517 | 0.437 | 0.46 | 0.677 | 0.715 | 0.774 | 0.775 | 0.791 | 1.12 | 0.943 | 1.02 | 1.07 | 0.888 | 0.844
RERF-LC-KJ | 1.15 | 1.41 | 1.17 | 1.45 | 0.99 | 0.848 | 1.03 | 0.797 | 0.848 | 0.95 | 1.12 | 0.95 | 1.02 | 0.901 | 0.779 | 0.801
NCI-H3122 | 0.113 | 0.108 | 0.0505 | 0.101 | 0.122 | 0.253 | 0.262 | 0.244 | 0.244 | 0.283 | 0.989 | 0.963 | 0.907 | 0.988 | 0.894 | 1.11
CAL-12T | 0.68 | 0.517 | 0.228 | 0.433 | 0.604 | 0.57 | 0.49 | 0.531 | 0.63 | 0.508 |  | 0.964 | 0.958 | 0.719 | 0.499 | 0.542
NCI-H2023 | 0.681 | 0.723 | 0.643 | 0.534 | 0.396 | 0.644 | 0.6 | 0.612 | 0.593 | 0.621 | 1 | 0.899 | 0.831 | 0.659 | 0.564 | 0.464
NCI-H1792 | 0.587 |  | 0.568 | 0.349 | 0.341 | 1.25 |  | 0.989 | 0.985 | 0.529 | 0.973 | 0.842 | 0.737 | 0.396 | 0.392 | 0.22
PC-3 [JPC-3] | 0.642 | 0.638 | 0.778 | 0.667 | 0.864 | 1.03 | 0.971 | 0.965 | 1.03 | 0.951 | 0.642 | 0.743 | 0.744 | 0.984 | 0.887 | 0.899
NCI-H2126 | 0.867 | 0.858 | 0.895 | 1 | 0.949 | 1.08 | 1.01 | 1.08 | 1.06 | 1.04 | 1.26 | 1.1 | 1.12 | 0.783 | 0.718 | 0.739
NCI-H460 | 0.033 | 0.029 | 0.0336 | 0.0289 | 0.0305 | 0.958 |  | 1.02 | 0.9 | 0.436 | 1.29 | 1.03 | 1.02 | 1.55 | 0.829 | 0.695
HCC-827 | 0.502 | 0.433 | 0.588 | 0.586 | 0.786 | 0.95 | 0.866 | 0.943 | 0.903 | 0.972 | 1.08 | 0.979 | 1.04 | 1.03 | 0.954 | 0.938
NCI-H838 | 0.523 | 0.274 | 0.24 | 0.316 | 0.221 | 0.957 | 0.765 | 0.837 | 0.93 | 0.607 | 0.907 | 0.863 | 0.906 | 1.13 | 1.04 | 0.97
SW 1573 | 0.205 | 0.218 | 0.198 | 0.302 | 0.217 | 0.879 | 0.62 | 0.771 | 0.865 | 0.606 | 1.34 | 0.936 | 0.811 | 0.829 | 0.762 | 0.624
NCI-H2347 | 1.03 | 0.43 | 0.825 | 0.253 | 0.575 | 0.675 | 0.691 | 0.718 | 0.7 | 0.656 | 1.32 | 0.819 | 0.92 | 1.1 | 1.01 | 0.825
HARA | 0.485 | 0.509 | 0.676 | 0.455 | 0.679 | 1.05 | 0.916 | 1.04 | 1.27 | 1.01 | 1.12 | 1.04 | 1.04 | 0.901 | 0.847 | 0.776
NCI-H1355 | 0.888 |  | 0.68 | 0.84 | 0.68 | 1.21 | 0.947 | 1.1 | 1.12 | 1.14 | 1.39 | 1.12 | 1.1 | 0.762 | 0.65 | 0.598
NCI-H1563 | 0.516 | 0.519 | 0.6 | 0.533 | 0.507 | 0.866 | 0.849 | 0.894 | 0.873 | 0.918 | 0.915 | 0.927 | 0.685 | 1.2 | 1.17 | 1.06

Cell Line | relative viability (RO-3306 + Luminespib; first compound 0.01 µM) | relative viability (RO-3306 + Luminespib; first compound 0.03162 µM) | relative viability (RO-3306 + Luminespib; first compound 0.1 µM) | relative viability (RO-3306 + Luminespib; first compound 0.3162 µM) | relative viability (RO-3306 + Luminespib; first compound 1 µM) | relative viability (RO-3306 + Crizotinib; first compound 0.01 µM) | relative viability (RO-3306 + Crizotinib; first compound 0.03162 µM) | relative viability (RO-3306 + Crizotinib; first compound 0.1 µM) | relative viability (RO-3306 + Crizotinib; first compound 0.3162 µM) | relative viability (RO-3306 + Crizotinib; first compound 1 µM) | relative viability ([1]; first compound 0.8 µM) | relative viability ([1]; first compound 2.53 µM) | relative viability ([1]; first compound 8 µM) | relative viability ([2]; first compound 0.8 µM) | relative viability ([2]; first compound 2.53 µM) | relative viability ([2]; first compound 8 µM)
NCI-H1437 | 1.17 | 1.02 | 1.09 | 1.11 | 1.17 | 1.13 | 0.682 | 0.988 | 1.01 | 1.03 | 0.485 | 0.423 | 0.588 | 1.07 | 0.859 | 0.893
HOP-62 | 1.02 | 0.926 | 0.976 | 0.925 | 0.894 | 1.2 | 1.09 | 0.973 | 1.05 | 0.891 | 0.39 | 0.634 | 0.93 | 1.14 | 0.607 | 0.836
EKVX | 1.02 | 0.689 | 0.841 | 0.959 | 0.905 | 1.05 | 0.859 | 1.03 | 1.04 | 0.894 | 1.1 | 0.918 | 1.15 | 0.897 | 0.946 | 0.931
NCI-H1666 | 0.929 | 0.883 | 1.05 | 1.05 | 0.891 | 1.04 | 0.869 | 0.915 | 0.839 | 0.89 | 0.948 | 0.696 | 0.685 | 0.788 | 0.703 | 0.78
201T | 1.02 | 1.05 | 1.02 | 1.01 | 1.05 | 1.07 | 1.03 | 0.998 | 0.992 | 1.02 | 1.02 | 1.04 | 1 | 0.996 | 0.941 | 1.04
COR-L 105 | 1.07 | 0.885 | 0.606 | 0.65 | 0.547 | 0.757 | 0.794 | 0.781 | 0.768 | 0.673 | 0.846 | 0.75 | 0.702 | 0.896 | 0.758 | 0.96
NCI-H1755 | 0.435 | 0.3 | 0.275 | 0.269 | 0.484 | 0.934 | 1.02 | 0.875 | 0.846 | 0.811 | 1.07 | 0.933 | 1.03 | 1.01 | 0.98 | 0.995
NCI-H520 | 0.252 | 0.212 | 0.249 | 0.218 | 0.23 | 0.877 | 0.423 | 0.772 | 0.825 | 0.748 | 0.962 | 0.785 | 0.626 | 1.09 | 1.23 | 1.25
SK-LU-1 | 0.184 | 0.194 | 0.179 | 0.202 | 0.166 | 0.991 | 0.84 | 1.03 | 0.935 | 0.716 | 1.09 | 1.04 | 1.38 | 1.09 | 0.97 | 0.881
NCI-H441 | 0.248 | 0.317 | 0.279 | 0.313 | 0.315 | 0.824 | 0.424 | 0.591 | 0.867 | 0.485 | 0.737 | 0.479 | 0.597 | 0.559 | 0.504 | 0.49
EPLC-272H | 0.239 | 0.114 | 0.142 | 0.367 | 0.111 | 0.948 | 0.841 | 0.904 | 1.03 | 0.532 | 0.964 | 0.899 | 0.656 | 1.12 | 1.32 | 1.11
PC-14 | 0.251 | 0.147 | 0.161 | 0.139 | 0.15 | 0.977 | 0.841 | 1.03 | 0.864 | 0.836 | 0.986 | 0.88 | 0.496 | 1.23 | 1.07 | 0.888
LU99A | 0.203 | 0.245 | 0.233 | 0.25 | 0.275 | 0.644 | 0.556 | 0.576 | 0.579 | 0.568 | 1.34 | 1.17 | 1.16 | 0.47 | 0.524 | 0.558
NCI-H2087 | 0.196 | 0.175 | 0.149 | 0.23 | 0.17 | 1 | 0.902 | 1.04 | 0.893 | 0.945 | 0.915 | 0.82 | 0.793 | 0.921 | 0.95 | 0.961
BEN | 0.331 | 0.337 | 0.33 | 0.4 | 0.447 | 0.834 | 0.768 | 0.86 | 0.906 | 0.813 | 0.843 | 0.844 | 0.866 | 1.09 | 0.858 | 0.82
NCI-H2405 | 0.753 | 0.705 | 0.849 | 0.607 | 0.7 | 0.863 | 0.786 | 0.864 | 0.828 | 0.794 | 1.02 | 0.952 | 0.885 | 1.05 | 0.913 | 0.983
